One experiment concerns Caki-1 cells. Description: Cell cycle analysis by flow cytometry, Caki-1. The format is cell-based. The conditions noted are these: 24 h. Background: A flow cytometer gives signals particle by particle.
In another experiment the test system is STAT3 in A-498 cells. Briefly: Western blot of STAT3 activation. The format is cell-based. For orientation: A western blot detects proteins with antibodies after separation by electrophoresis.
Experiment [1] deals with A-498 cells. Briefly: Cell cycle analysis by flow cytometry, A-498. The class given is cell-based. To be noted: 24 h.
A further experiment relates to caspase-9. Description: Caspase-9 ELISA in A-498 cells. The format is cell-based, human. To be noted: 24 h, control 4.53. In general terms: An ELISA detects its analyte on a solid surface through an enzyme-linked reagent.
The target in another experiment is HDAC1 (Homo sapiens, UniProt Q13547). Description: Fluorogenic enzymatic assay HDAC1. The class given is biochemical.
Sequence of HDAC1 (Q13547 whole entry): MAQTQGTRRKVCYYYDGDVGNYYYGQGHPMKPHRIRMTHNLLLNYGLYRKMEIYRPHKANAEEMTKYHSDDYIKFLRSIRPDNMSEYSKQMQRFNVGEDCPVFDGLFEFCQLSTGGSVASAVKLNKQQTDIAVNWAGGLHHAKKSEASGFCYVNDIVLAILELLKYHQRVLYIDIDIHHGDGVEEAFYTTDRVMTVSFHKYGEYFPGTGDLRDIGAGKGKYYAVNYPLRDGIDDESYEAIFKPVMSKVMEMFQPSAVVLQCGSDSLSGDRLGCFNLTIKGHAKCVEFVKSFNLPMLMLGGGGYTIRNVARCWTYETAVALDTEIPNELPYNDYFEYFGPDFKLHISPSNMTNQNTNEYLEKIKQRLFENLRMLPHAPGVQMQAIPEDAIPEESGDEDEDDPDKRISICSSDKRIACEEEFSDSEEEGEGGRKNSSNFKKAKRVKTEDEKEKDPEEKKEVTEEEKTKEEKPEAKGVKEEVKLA
The test system of experiment [2] is HDAC2, p-FAK, p-Akt in A-498 cells. Description: Resistance development assay, Western blot of HDAC2, p-FAK, FAK, p-Akt, Akt.
In experiment [3] the test system is HDAC2 and FAK in A-498 cells. Description: Western blot of HDAC2 expression and FAK phosphorylation, A-498 cells. The format is cell-based. To be noted: 24 h at IC50, Western blot.
A further experiment deals with caspase-8. Briefly: Caspase-8 ELISA in A-498 cells. The class given is cell-based, human. To be noted: 24 h, control 0.274.
The next experiment relates to caspase-3. Description: Active caspase-3 ELISA in A-498 cells. The format is cell-based, human. To be noted: control 45.57.
For experiment [4], the system named is renal cancer cell lines A-498 and Caki-1. Description: MTT assay, renal cancer cell lines. The class given is cell-based. The conditions noted are these: for GI% renal cancer cell lines A-498 and Caki-1: 10 μM, range over both cell lines; for IC50: read-out: IC50 against the tested renal cancer cell lines.
Experiment [5] relates to HDAC2 and FAK in Caki-1 cells. Description: Western blot of HDAC2 expression and FAK phosphorylation, Caki-1 cells. The class given is cell-based. The conditions noted are these: 24 h at IC50, Western blot.
Experiment [6] concerns HCT116, HT-29, K562, KG-1, A-498 and Caki-1 cell lines. Description: MTT assay, all six tested cell lines. The class given is cell-based. The conditions noted are these: 10 μM, range over six cell lines.
The next experiment concerns HCT116. Briefly: MTT proliferation assay, HCT116. The format is cell-based. The conditions noted are these: Homo sapiens, HCT-116, 24 h, read-out: Growth inhibition (%) HCT116.
In experiment [7] the test system is A-498 cells. Briefly: Resistance development assay. The conditions noted are these: Homo sapiens, A498, read-out: IC50 on pretreated A-498 cells.
A further experiment deals with K562. Briefly: MTT proliferation assay, K562. The class given is cell-based. The conditions noted are these: Homo sapiens, K562, 24 h, read-out: Growth inhibition (%) K562.
Where [8] appears, read: A-498 cells, both pretreated (12 weeks) and not pretreated.
Where [9] appears, read: A-498 cells pretreated 12 weeks.

The structures appear in SMILES notation.

We go through 12 compounds from paper PMC8818328 (European journal of medicinal chemistry, 2021).

In general, IC50 refers to the point on the concentration scale where inhibition reaches its midpoint. Consider `Cn1c(SCCCCCC(=O)NO)nnc1-c1ccncc1` [Compound 6a, N-hydroxy-6-((4-methyl-5-(pyridin-4-yl)-4H-1,2,4-triazol-3-yl)thio)hexanamide], for which the “percentage of cells in G1 phase” value in the experiment with Caki-1 cells (1.5 μM) and in the experiment with A-498 cells [1] (1.5 μM) was “decreased” throughout. For the same compound, the “percentage of cells in S phase” value in the experiment with Caki-1 cells (1.5 μM) and with A-498 cells [1] (1.5 μM) was “minor changes” in each case. Further, the “percentage of cells in G2/M phase” value with Caki-1 cells (control 5.5%) was 35%; in the experiment on A-498 cells [1] (control 18%) it was 65%. In addition, in the experiment with STAT3 in A-498 cells, the STAT3 activation entry is recorded as “inhibit”. Moreover, the “Caspase-9 Concentration” value with caspase-9 was 28.47 ng/mL. Also, the concentration for half-maximal inhibition (IC50) at HDAC1 was 12.3 ± 1.64 µM; in experiment [4], 0.95 to 2.35 µM. For the same compound, the Akt phosphorylation entry in experiment [2] (setting [8]) was “substantial ability to inhibit”. Moreover, the FAK phosphorylation result in experiment [2] (setting [8]) is “steady ability to inhibit”; in [3], “decreased”; in experiment [5], “decreased”. The HDAC2 expression result in [2] (setting [8]) was “steady ability to inhibit”. Also, the “expression level of HDAC2” value in experiment [3] and in [5] was “decreased” in each case. Moreover, the “Caspase-8 Concentration” value in the experiment on caspase-8 amounted to 0.888 ng/mL. For the same compound, the Caspase-3 concentration in the experiment with caspase-3 stood at 515.40 pg/mL. Besides, the “GI% renal cancer cell lines A-498 and Caki-1” value in [4] is given as 89.34–99.81%. Besides, the “GI% against all the tested cells” value in experiment [6] is on record as 40.12–99.81%.

As usually defined, the inhibition is the change of the read-out against control, counted positive when it falls. As to `Nc1ccccc1NC(=O)c1ccc(CSc2nnc(-c3ccncc3)n2-c2ccccc2)cc1` [Compound 11d, N-(2-aminophenyl)-4-(((4-phenyl-5-(pyridin-4-yl)-4H-1,2,4-triazol-3-yl)thio)methyl)benzamide], in the experiment with HCT116, the inhibition at 10 µM worked out at 45.4%. For the same compound, the IC50 in [4] was in the range of 6.19 to 20.9 µM.

Take `C=CCn1c(SCCCCCC(=O)Nc2ccccc2N)nnc1-c1ccncc1` [Compound 7c, 6-((4-allyl-5-(pyridin-4-yl)-4H-1,2,4-triazol-3-yl)thio)-N-(2-aminophenyl)hexanamide]: the FAK phosphorylation entry in experiment [3] was “entirely blocked”. Further, in experiment [4], the “GI% renal cancer cell lines A-498 and Caki-1” value is recorded as 89.34–99.81%; the IC50 was in the range of 0.95 to 2.35 µM. Further, the FAK phosphorylation entry in experiment [5] is listed as “entirely blocked”. Moreover, the “GI% against all the tested cells” value in experiment [6] is recorded as 40.12–99.81%.

With `CCCC(CCC)C(=O)O` [VPA, valproic acid, reference compound], in the experiment on A-498 cells [7], the IC50 was 3090 µM. Moreover, in experiment [2] (setting [9]), the Akt phosphorylation result is “drastic overexpression” and the HDAC2 expression entry was “lower ability to inhibit”.

With `O=C(NO)c1ccc(CSc2nnc(-c3ccncc3)n2-c2ccccc2)cc1` [Compound 10d, N-hydroxy-4-(((4-phenyl-5-(pyridin-4-yl)-4H-1,2,4-triazol-3-yl)thio)methyl)benzamide], the half-inhibitory concentration (IC50) in [4] lay in the range of 6.19 to 20.9 µM.

As to `C=CCn1c(SCc2ccc(C(=O)NO)cc2)nnc1-c1ccncc1` [Compound 10c, 4-(((4-allyl-5-(pyridin-4-yl)-4H-1,2,4-triazol-3-yl)thio)methyl)-N-hydroxybenzamide], the IC50 in experiment [4] fell in the range of 6.19 to 20.9 µM.

In the case of `Cn1c(SCc2ccc(C(=O)Nc3ccccc3N)cc2)nnc1-c1ccncc1` [Compound 11a, N-(2-aminophenyl)-4-(((4-methyl-5-(pyridin-4-yl)-4H-1,2,4-triazol-3-yl)thio)methyl)benzamide], in experiment [4], the IC50 lay within 6.19 to 20.9 µM.

As to `Nc1ccccc1NC(=O)CCCCCSc1nnc(-c2ccncc2)n1-c1ccccc1` [Compound 7d, N-(2-aminophenyl)-6-((4-phenyl-5-(pyridin-4-yl)-4H-1,2,4-triazol-3-yl)thio)hexanamide], the inhibition at 10 µM in the experiment on K562 came out at 15.1%.

For the compound `C=CCn1c(SCc2ccc(C(=O)Nc3ccccc3N)cc2)nnc1-c1ccncc1` [Compound 11c, 4-(((4-allyl-5-(pyridin-4-yl)-4H-1,2,4-triazol-3-yl)thio)methyl)-N-(2-aminophenyl)benzamide], in experiment [4], the “GI% renal cancer cell lines A-498 and Caki-1” value is listed as 89.34–99.81%; the IC50 lay in the range of 0.95 to 2.35 µM. Besides, the “GI% against all the tested cells” value in [6] is 40.12–99.81%.

As to `Cn1c(SCc2ccc(C(=O)NO)cc2)nnc1-c1ccncc1` [Compound 10a, N-hydroxy-4-(((4-methyl-5-(pyridin-4-yl)-4H-1,2,4-triazol-3-yl)thio)methyl)benzamide], in the experiment with HCT116, the inhibition at 10 µM is 32.4%. In [4], the IC50 was 6.19 to 20.9 µM.

Turning to `Cn1c(SCCCCCC(=O)Nc2ccccc2N)nnc1-c1ccncc1` [Compound 7a, N-(2-aminophenyl)-6-((4-methyl-5-(pyridin-4-yl)-4H-1,2,4-triazol-3-yl)thio)hexanamide], in experiment [4], the IC50 was in the range of 6.19 to 20.9 µM.

For the compound `O=C(O)CCCCCSc1nnc(-c2ccncc2)n1-c1ccccc1` [Compound 5d, 6-((4-phenyl-5-(pyridin-4-yl)-4H-1,2,4-triazol-3-yl)thio)hexanoic acid], in [4], the “GI% renal cancer cell lines A-498 and Caki-1” value is 89.34–99.81%; the IC50 lay within 0.95 to 2.35 µM. Further, the “GI% against all the tested cells” value in [6] was 40.12–99.81%.
